PubChem BioAssay (NCI)
“And” between values parts separate entries of the source, which are not always exact repeats. Identical values can stand only once.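 Five compound concentrations were applied to cells in 96-well plates for 48 hours; endpoints were derived by simple linear interpolation of the resulting dose-response curve. GI50 marks 50% less growth. TGI denotes the concentration required for complete inhibition of growth.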

Assays:
Assay in all cases: NCI tumour cell line growth inhibition, 48 h
CAKI-1 renal = tested on: CAKI-1 renal
HCT-15 colon = tested on: HCT-15 colon
M14 melanoma = tested on: M14 melanoma
NCI-H226 lung = tested on: NCI-H226 lung
OVCAR-4 ovarian = tested on: OVCAR-4 ovarian
SF-268 CNS = tested on: SF-268 CNS
SK-MEL-2 melanoma = tested on: SK-MEL-2 melanoma
SNB-19 CNS = tested on: SNB-19 CNS
T-47D breast = tested on: T-47D breast
U251 CNS = tested on: U251 CNS

Row | Compound | GI50 (CAKI-1 renal) | TGI (CAKI-1 renal) | GI50 (HCT-15 colon) | TGI (HCT-15 colon) | GI50 (M14 melanoma) | TGI (M14 melanoma) | GI50 (NCI-H226 lung) | TGI (NCI-H226 lung) | GI50 (OVCAR-4 ovarian) | TGI (OVCAR-4 ovarian) | GI50 (SF-268 CNS) | TGI (SF-268 CNS) | GI50 (SK-MEL-2 melanoma) | TGI (SK-MEL-2 melanoma) | GI50 (SNB-19 CNS) | TGI (SNB-19 CNS) | GI50 (T-47D breast) | TGI (T-47D breast) | GI50 (U251 CNS) | TGI (U251 CNS)
1 | COc1ccc(OC)c(-c2nc3sccn3c2/C=C2/C(=O)Nc3ccccc32)c1 | 0.506 µM | 8.68 µM | 0.434 µM | 14.8 µM | 0.323 µM | 1.41 µM | 1.4 µM | 4.89 µM | 3.01 µM | > 38.7 µM | 1.33 µM | 24.2 µM | 0.713 µM | 29.4 µM | 1.72 µM | > 22.7 µM | 7.82 µM | > 49.4 µM | 1.06 µM | 15 µM
2 | O=c1cccc(C#CCCCCOC2CCCO2)o1 (centres undefined) | 11.4 µM | 33.6 µM | 19.5 µM | 61.4 µM | 9.49 µM | > 27.9 µM | 17.8 µM | 56.2 µM | > 33.4 µM | > 60.1 µM | 9.14 µM | > 77.6 µM | 12.7 µM | > 50.4 µM | > 28.6 µM | > 56.5 µM | 22.7 µM | > 48.8 µM | 28.8 µM | > 70.1 µM
3 | O=C(c1cccs1)c1c(C(F)(F)F)n([O-])c2cc(F)c(F)cc2[n+]1=O | 1.25 µM | 4 µM | 0.851 µM | 2.25 µM | 2.48 µM | 6.6 µM | 3.62 µM | 7.47 µM | 31.9 µM | 50 µM | 2.99 µM | 6.88 µM | 5.44 µM | 8.63 µM | 6.01 µM | 8.76 µM | 2.25 µM | 5.96 µM | 1.02 µM | 2.72 µM
4 | NC(N)=NC(N)=NCCc1ccccc1 | 58.5 µM and > 100 µM | > 100 µM | > 100 µM | > 100 µM | > 100 µM | > 100 µM | > 100 µM | > 100 µM | 66.7 µM and 97.9 µM | > 100 µM | > 100 µM | > 100 µM | > 100 µM | > 100 µM | > 100 µM | > 100 µM | 84.8 µM and > 100 µM | > 100 µM | > 100 µM | > 100 µM
5 | NC1=C(c2nc(-c3cc4ccccc4oc3=O)cs2)C(c2ccco2)c2c(c3ccccc3oc2=O)O1 (centres undefined) | > 150 mg/L | > 150 mg/L | > 150 mg/L | > 150 mg/L | 100 mg/L | > 150 mg/L | 43.1 mg/L | 131 mg/L | 68.3 mg/L | > 150 mg/L | 68.4 mg/L | > 150 mg/L | 43.6 mg/L | 112 mg/L | 53.1 mg/L | > 150 mg/L | > 150 mg/L | > 150 mg/L | 21.7 mg/L | 58.4 mg/L
6 | O=C1/C(=C\c2ccccc2)c2ccccc2N1Cc1ccccc1 |  | 13.2 µM |  | 14.5 µM |  | 23.9 µM |  | 35.6 µM |  | 27.5 µM |  | 14.8 µM |  | 17.1 µM |  | 15 µM |  | 15.1 µM |  | 15.2 µM
7 | CCOC(=O)c1c(C)c2c(n1C)CSc1cc(S(=O)(=O)c3ccccc3)c(=O)[nH]c1-2 | 21.1 µM | > 100 µM | 25.8 µM | > 100 µM | 27.9 µM | 77.7 µM | 23.9 µM | > 100 µM | 27.8 µM | > 100 µM | 27.8 µM | > 100 µM | 36.2 µM | > 100 µM | 26.9 µM | > 100 µM | 10.5 µM | 74.7 µM | 28.4 µM | > 100 µM
8 | C[C@]12CC[C@@H]3c4ccc(O)cc4CC[C@H]3[C@@H]1CC[C@@H]2NS(=O)(=O)c1cccc(Br)c1 | 2.99 µM | 11 µM | 2.77 µM | 11.1 µM | 3.69 µM | 13.7 µM | 3.19 µM | 15.6 µM | 2.45 µM | 9.98 µM | 3.98 µM | 16.6 µM | 3.68 µM | 12 µM | 7.09 µM | 20.4 µM | 5.05 µM | 17.6 µM | 3.23 µM | 11 µM
9 | CC(=O)N1c2ccccc2C23CCN4CC5=CCOC(O)C(C5CC42)C13 (centres undefined) |  | > 100 µM |  | > 100 µM |  | > 100 µM |  | > 100 µM |  | > 100 µM |  | > 100 µM |  | > 100 µM |  | > 100 µM |  | > 100 µM |  | > 100 µM
10 | Cc1ccnc2c1NC(=O)c1cccnc1N2C1CC1 | > 100 µM | > 100 µM | > 100 µM | > 100 µM | > 100 µM | > 100 µM | > 100 µM | > 100 µM | > 100 µM | > 100 µM | > 100 µM | > 100 µM | > 100 µM | > 100 µM | > 100 µM | > 100 µM | > 100 µM | > 100 µM | > 100 µM | > 100 µM
11 | COC(=O)c1c2c(c(C)[n+]([O-])c1C)C(=O)C(NCc1ccc(F)c(Cl)c1)=CC2=O | 2.52 µM | 10.4 µM | 1.39 µM | 3.58 µM | 1.41 µM | 3.12 µM | 2.98 µM | 9.32 µM | 0.652 µM | 2.07 µM | 2.64 µM | 13.2 µM | 2.02 µM | 5.06 µM | 2.81 µM | 9.33 µM | 1.84 µM | 5.09 µM | 2.53 µM | 13.8 µM
12 | N#Cc1cccc(Nc2nccc(-c3cnn4ncccc34)n2)c1 | 0.00729 µM | 1.17 µM | 0.0071 µM | > 25 µM | 0.00525 µM | 0.0125 µM | 0.00513 µM | 0.0152 µM | 0.0322 µM |  | 0.00498 µM | 0.3 µM | 0.00458 µM | 0.0105 µM | 0.00702 µM | > 25 µM | 0.0182 µM | 0.219 µM | 0.00552 µM | > 25 µM
13 | Cc1ccc(NC2=C(Cl)C(=O)c3nc(C)ccc3C2=O)cc1 | 1.36 µM | 2.68 µM | 0.694 µM | 2.32 µM | 1.67 µM | 3.22 µM | 1.41 µM | 3.2 µM | 1.28 µM | 2.66 µM | 1.74 µM | 3.78 µM | 1.82 µM | 3.79 µM | 1.32 µM | 3.01 µM | 1.08 µM | 3.3 µM | 1.31 µM | 2.75 µM
14 | Cc1oc2c(c1C(=O)c1ccccc1)C(=O)c1ccccc1C2=O |  | 9.12 µM |  | 18.7 µM |  | 10.1 µM |  | 23.3 µM |  | 9.95 µM |  | 32.8 µM |  | 9.04 µM |  | 23.7 µM |  | 7.04 µM |  | 21 µM
